Publication PMC6102747 (Molecular Medicine Reports, 2018)
Read-outs that look alike come from different tables or passages of the source.

Columns and labels:
[1] = system: Slco1b2; assay: RT-qPCR mRNA expression in liver; type: in vivo, rats; settings: vs control
[2] = Pharmacokinetics of CsA after intravenous administration; type: in vivo, Sprague-Dawley rats; settings: rats, i.v. CsA 2.5 mg/kg, Q3GA 5 mg/kg i.v. 7 days
[3] = system: Pxr; type: in vivo, rats; settings: vs control
[4] = system: Bcrp; assay: Western blot protein expression in small intestine and liver; type: in vivo, rats; settings: vs control
[5] = Pharmacokinetics of CsA after oral administration; type: in vivo, Sprague-Dawley rats; settings: rats; for increase in the CL/F of CsA / increase in the V/F of CsA / decrease in AUC0-t of CsA / decrease in AUC0-∞ of CsA / decrease in Cmax of CsA: oral CsA 10 mg/kg; for decrease in AUC0-t of CsA / decrease in AUC0-∞ of CsA / decrease in Cmax of CsA: vs control; for decrease in Cmax of CsA: P>0.05
[6] = system: Pxr; assay: RT-qPCR mRNA expression in small intestine and liver; type: in vivo, rats; settings: small intestine, vs control, P<0.001
[7] = system: Sult1a1; assay: as above; type: in vivo, rats; settings: vs control
[8] = system: Cyp3a2; assay: as above; type: in vivo, rats; settings: vs control
[9] = system: OATP2B1; assay: Western blot protein expression in small intestine; type: in vivo, rats; settings: vs control
[10] = system: Bcrp; assay: RT-qPCR mRNA expression in small intestine and liver; type: in vivo, rats; settings: vs control
[11] = system: Cyp3a1; type: in vivo, rats; settings: vs control
[12] = system: Slco2b1; assay: RT-qPCR mRNA expression in small intestine; type: in vivo, rats; settings: vs control
[13] = system: Sult1a1; assay: Western blot protein expression in small intestine and liver; type: in vivo, rats; settings: vs control
[14] = system: Car; assay: as above; type: in vivo, rats; settings: vs control
[15] = system: Ugt1a1; assay: RT-qPCR mRNA expression in small intestine and liver; type: in vivo, rats; settings: vs control
[16] = system: Car; assay: as above; type: in vivo, rats; settings: vs control
[17] = system: Cyp3a2; type: in vivo, rats; settings: vs control
[18] = system: Mrp2; assay: Western blot protein expression in small intestine and liver; type: in vivo, rats; settings: vs control, P<0.001
[19] = system: Gstm1; assay: RT-qPCR mRNA expression in liver; type: in vivo, rats; settings: vs control
[20] = system: OATP1B2; assay: Western blot protein expression in liver; type: in vivo, rats; settings: vs control
[21] = low-dose Q3GA 2.5 mg/kg i.v. 7 days, P<0.001
[22] = middle-dose Q3GA 5 mg/kg i.v. 7 days, P<0.01
[23] = liver, low-dose Q3GA 2.5 mg/kg i.v. 7 days, P<0.01
[24] = small intestine, high-dose Q3GA 10 mg/kg i.v. 7 days, P<0.01
[25] = small intestine, low-dose Q3GA 2.5 mg/kg i.v. 7 days, P<0.001
[26] = small intestine, middle-dose Q3GA 5 mg/kg i.v. 7 days, P<0.05
[27] = liver, high-dose Q3GA 10 mg/kg i.v. 7 days, P<0.05
[28] = liver, low-dose Q3GA 2.5 mg/kg i.v. 7 days, P<0.001
[29] = liver, middle-dose Q3GA 5 mg/kg i.v. 7 days, P<0.05
[30] = high-dose Q3GA 10 mg/kg i.v. 7 days
[31] = low-dose Q3GA 2.5 mg/kg i.v. 7 days
[32] = middle-dose Q3GA 5 mg/kg i.v. 7 days
[33] = liver, high-dose Q3GA 10 mg/kg i.v. 7 days, P<0.01
[34] = small intestine, high-dose Q3GA 10 mg/kg i.v. 7 days, P<0.001
[35] = small intestine, middle-dose Q3GA 5 mg/kg i.v. 7 days
[36] = high-dose Q3GA 10 mg/kg i.v. 7 days, P<0.01
[37] = liver, high-dose Q3GA 10 mg/kg i.v. 7 days, not significant
[38] = liver, middle-dose Q3GA 5 mg/kg i.v. 7 days, not significant
[39] = small intestine, middle-dose Q3GA 5 mg/kg i.v. 7 days, P<0.01
[40] = liver, middle-dose Q3GA 5 mg/kg i.v. 7 days, P<0.001

## O=c1c(O[C@@H]2O[C@H](CO)[C@@H](O)[C@H](O)[C@H]2O)c(-c2ccc(O)c(O)c2)oc2cc(O)cc(O)c12 [Q3GA, Quercetin-3-O-β-D-glucoside]
[1]; high-dose Q3GA 10 mg/kg i.v. 7 days, P<0.001
  decrease in Slco1b2 mRNA expression: 53.54%
[1]; [21]
  decrease in Slco1b2 mRNA expression: 68.06%
[1]; [22]
  decrease in Slco1b2 mRNA expression: 38.39%
[2]
  effect on blood concentration of CsA after intravenous injection of CsA: not affected
[3]; [23]
  increase in PXR protein expression: 182.93%
[3]; [24]
  increase in PXR protein expression: 147.68%
[3]; [25]
  increase in PXR protein expression: 258.85%
[3]; [26]
  increase in PXR protein expression: 81.66%
[4]; [27]
  decrease in BCRP protein expression: 30.86%
[4]; [28]
  decrease in BCRP protein expression: 69.78%
[4]; [29]
  decrease in BCRP protein expression: 27.73%
[4]; [24]
  decrease in BCRP protein expression: 36.44%
[4]; [25]
  decrease in BCRP protein expression: 70.61%
[4]; [26]
  decrease in BCRP protein expression: 32.93%
[5]; Q3GA 2.5, 5 or 10 mg/kg i.v. for 7 consecutive days
  effect on bioavailability of oral CsA: reduced the bioavailability of oral CsA
[5]; Q3GA 5 mg/kg daily i.v. 7 days
  increase in the CL/F of CsA: 72.71%
[5]; Q3GA 5 mg/kg daily i.v. 7 days, P<0.01
  increase in the V/F of CsA: 103.32%
[5]; Q3GA 10 mg/kg daily i.v. 7 days
  increase in the CL/F of CsA: 79.57%
[5]; Q3GA 10 mg/kg daily i.v. 7 days, P<0.05
  increase in the V/F of CsA: 93.19%
[5]; [30]
  decrease in AUC0-t of CsA: 47.79%
  decrease in AUC0-∞ of CsA: 46.30%
  decrease in Cmax of CsA: 40.41%
[5]; [31]
  decrease in AUC0-t of CsA: 34.26%
  decrease in AUC0-∞ of CsA: 34.66%
  decrease in Cmax of CsA: 33.12%
[5]; [32]
  decrease in AUC0-t of CsA: 36.32%
  decrease in AUC0-∞ of CsA: 34.81%
[6]; [30]
  increase in Pxr mRNA expression: 200.21%
[6]; [31]
  increase in Pxr mRNA expression: 415.18%
[6]; [32]
  increase in Pxr mRNA expression: 130.03%
[7]; liver, high-dose Q3GA 10 mg/kg i.v. 7 days
  decrease in Sult1a1 mRNA expression: 18.39%
[7]; [28]
  decrease in Sult1a1 mRNA expression: 58.06%
[7]; [29]
  decrease in Sult1a1 mRNA expression: 31.94%
[7]; [24]
  decrease in Sult1a1 mRNA expression: 52.02%
[7]; [25]
  decrease in Sult1a1 mRNA expression: 64.54%
[7]; [26]
  decrease in Sult1a1 mRNA expression: 33.80%
[8]; [33]
  decrease in Cyp3a2 mRNA expression: 34.64%
[8]; [28]
  decrease in Cyp3a2 mRNA expression: 64.68%
[8]; [29]
  decrease in Cyp3a2 mRNA expression: 26.18%
[8]; [34]
  decrease in Cyp3a2 mRNA expression: 39.36%
[8]; [25]
  decrease in Cyp3a2 mRNA expression: 49.70%
[8]; [35]
  decrease in Cyp3a2 mRNA expression: 17.93%
[9]; [36]
  decrease in OATP2B1 protein expression: 51.44%
[9]; [21]
  decrease in OATP2B1 protein expression: 86.44%
[9]; [22]
  decrease in OATP2B1 protein expression: 42.21%
[10]; [37]
  decrease in Bcrp mRNA expression: 29.23%
[10]; [23]
  decrease in Bcrp mRNA expression: 56.15%
[10]; [38]
  decrease in Bcrp mRNA expression: 29.23%
[10]; [24]
  decrease in Bcrp mRNA expression: 43.68%
[10]; [25]
  decrease in Bcrp mRNA expression: 63.83%
[10]; [26]
  decrease in Bcrp mRNA expression: 27.52%
[11]; [33]
  decrease in CYP3A1 protein expression: 52.99%
[11]; [23]
  decrease in CYP3A1 protein expression: 57.66%
[11]; [29]
  decrease in CYP3A1 protein expression: 43.95%
[11]; [34]
  decrease in CYP3A1 protein expression: 62.95%
[11]; [25]
  decrease in CYP3A1 protein expression: 75.25%
[11]; [39]
  decrease in CYP3A1 protein expression: 39.22%
[12]; [36]
  decrease in Slco2b1 mRNA expression: 39.57%
[12]; [21]
  decrease in Slco2b1 mRNA expression: 62.19%
[12]; [32]
  decrease in Slco2b1 mRNA expression: 20.49%
[13]; [23]
  decrease in SULT1A1 protein expression: 75.89%
[13]; [34]
  decrease in SULT1A1 protein expression: 57.47%
[13]; [25]
  decrease in SULT1A1 protein expression: 75.44%
[13]; [26]
  decrease in SULT1A1 protein expression: 36.33%
[14]; [37]
  increase in CAR protein expression: 211.76%
[14]; [23]
  increase in CAR protein expression: 456.37%
[14]; [38]
  increase in CAR protein expression: 208.32%
[14]; [24]
  increase in CAR protein expression: 91.07%
[14]; [25]
  increase in CAR protein expression: 235.46%
[14]; [39]
  increase in CAR protein expression: 78.59%
[15]; [27]
  decrease in Ugt1a1 mRNA expression: 41.04%
[15]; [28]
  decrease in Ugt1a1 mRNA expression: 76.13%
[15]; liver, middle-dose Q3GA 5 mg/kg i.v. 7 days, P<0.01
  decrease in Ugt1a1 mRNA expression: 48.78%
[15]; [34]
  decrease in Ugt1a1 mRNA expression: 37.83%
[15]; [25]
  decrease in Ugt1a1 mRNA expression: 70.14%
[15]; [26]
  decrease in Ugt1a1 mRNA expression: 24.08%
[16]; [33]
  increase in Car mRNA expression: 74.60%
[16]; [28]
  increase in Car mRNA expression: 224.76%
[16]; [40]
  increase in Car mRNA expression: 98.73%
[16]; small intestine, high-dose Q3GA 10 mg/kg i.v. 7 days, P<0.05
  increase in Car mRNA expression: 117.54%
[16]; [25]
  increase in Car mRNA expression: 265.44%
[16]; [26]
  increase in Car mRNA expression: 99.57%
[17]; liver, high-dose Q3GA 10 mg/kg i.v. 7 days, P<0.001
  decrease in CYP3A2 protein expression: 47.16%
[17]; [28]
  decrease in CYP3A2 protein expression: 54.18%
[17]; [40]
  decrease in CYP3A2 protein expression: 33.07%
[17]; [24]
  decrease in CYP3A2 protein expression: 38.67%
[17]; [25]
  decrease in CYP3A2 protein expression: 55.28%
[17]; [35]
  decrease in CYP3A2 protein expression: 21.68%
[18]; liver, low-dose Q3GA 2.5 mg/kg i.v. 7 days
  decrease in MRP2 protein expression: 70.70%
[18]; small intestine, high-dose Q3GA 10 mg/kg i.v. 7 days
  decrease in MRP2 protein expression: 50.84%
[18]; small intestine, low-dose Q3GA 2.5 mg/kg i.v. 7 days
  decrease in MRP2 protein expression: 75.95%
[18]; [35]
  decrease in MRP2 protein expression: 42.60%
[19]; [30]
  increase in Gstm1 mRNA expression: 75.09%
[19]; [21]
  increase in Gstm1 mRNA expression: 248.40%
[19]; [32]
  increase in Gstm1 mRNA expression: 85.41%
[20]; [30]
  decrease in OATP1B2 protein expression: 33.73%
[20]; low-dose Q3GA 2.5 mg/kg i.v. 7 days, P<0.01
  decrease in OATP1B2 protein expression: 67.47%
[20]; [32]
  decrease in OATP1B2 protein expression: 26.52%
